From article PMC12615753, “Glutathione as a taste modulator: molecular mechanisms of interaction with umami and sweet taste receptors” (Food Chemistry: Molecular Sciences, 2025)
Entries after “also recorded” stand apart in the source; their conditions may differ.

Molecular target: T1, hTAS1R1 H71S/rTAS1R3 (Homo sapiens, UniProt Q7RTX1, H71S)
T1 construct: UniProtKB number Q7RTX1–1); expressed in transfected cells; host or cells: HEK293T/17 (ATCC CRL-11268)
T1 sequence (Q7RTX1 21-841 H71S): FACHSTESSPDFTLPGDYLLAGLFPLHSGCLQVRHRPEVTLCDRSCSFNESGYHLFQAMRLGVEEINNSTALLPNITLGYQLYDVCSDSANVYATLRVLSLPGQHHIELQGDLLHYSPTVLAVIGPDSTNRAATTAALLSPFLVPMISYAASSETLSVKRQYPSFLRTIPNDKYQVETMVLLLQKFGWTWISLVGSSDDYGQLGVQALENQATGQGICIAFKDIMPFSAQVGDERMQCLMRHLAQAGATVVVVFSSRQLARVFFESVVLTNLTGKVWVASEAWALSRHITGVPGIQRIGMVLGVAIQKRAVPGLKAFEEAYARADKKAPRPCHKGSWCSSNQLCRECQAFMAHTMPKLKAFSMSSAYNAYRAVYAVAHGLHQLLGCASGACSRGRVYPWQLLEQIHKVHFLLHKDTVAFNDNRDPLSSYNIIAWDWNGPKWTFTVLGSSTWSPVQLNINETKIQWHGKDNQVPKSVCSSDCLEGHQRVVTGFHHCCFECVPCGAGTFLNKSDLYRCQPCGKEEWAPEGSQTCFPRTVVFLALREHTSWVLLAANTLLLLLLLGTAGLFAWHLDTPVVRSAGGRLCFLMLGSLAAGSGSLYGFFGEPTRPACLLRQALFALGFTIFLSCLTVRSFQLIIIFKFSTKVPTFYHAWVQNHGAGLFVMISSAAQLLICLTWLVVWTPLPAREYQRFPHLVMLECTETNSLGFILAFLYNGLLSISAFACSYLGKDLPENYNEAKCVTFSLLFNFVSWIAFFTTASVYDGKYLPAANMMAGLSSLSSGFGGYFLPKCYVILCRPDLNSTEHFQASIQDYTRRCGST
T1 sequence (Q923K1 21-858 partner): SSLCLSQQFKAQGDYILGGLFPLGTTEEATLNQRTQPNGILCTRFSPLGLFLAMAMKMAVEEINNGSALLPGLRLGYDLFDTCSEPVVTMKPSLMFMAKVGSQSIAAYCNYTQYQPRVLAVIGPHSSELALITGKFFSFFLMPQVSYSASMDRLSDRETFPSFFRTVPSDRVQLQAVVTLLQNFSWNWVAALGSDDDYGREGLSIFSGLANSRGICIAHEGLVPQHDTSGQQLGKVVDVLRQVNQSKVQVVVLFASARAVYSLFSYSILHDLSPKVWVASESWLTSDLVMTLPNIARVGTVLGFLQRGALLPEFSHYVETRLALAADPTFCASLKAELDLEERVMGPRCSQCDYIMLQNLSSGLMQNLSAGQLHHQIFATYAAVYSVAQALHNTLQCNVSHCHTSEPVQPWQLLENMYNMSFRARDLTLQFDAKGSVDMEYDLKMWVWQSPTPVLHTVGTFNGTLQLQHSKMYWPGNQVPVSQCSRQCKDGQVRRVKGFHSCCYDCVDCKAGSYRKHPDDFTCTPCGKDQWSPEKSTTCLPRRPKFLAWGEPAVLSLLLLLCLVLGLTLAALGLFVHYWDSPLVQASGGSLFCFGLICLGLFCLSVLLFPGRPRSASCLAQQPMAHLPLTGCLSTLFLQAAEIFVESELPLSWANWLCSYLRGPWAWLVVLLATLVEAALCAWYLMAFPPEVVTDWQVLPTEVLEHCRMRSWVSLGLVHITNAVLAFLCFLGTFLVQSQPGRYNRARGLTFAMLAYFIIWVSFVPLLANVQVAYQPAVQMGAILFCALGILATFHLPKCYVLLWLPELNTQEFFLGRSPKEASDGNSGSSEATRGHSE
Assay: Calcium assay, hTAS1R1 mutant co-expressed with rTAS1R3
Type: cell-based, rat
Conditions: for response to the agonist alone, vs WT: H71S
Text: Chimeric Gα proteins, such as Gα16Gust44, Gα16Gi3 or Gα15i2, are widely used in the functional expression of TAS1R receptors ([Backes et al., 2015]; [Suess et al., 2015]; [Toda et al., 2021], [Toda et al., 2013], [Toda et al., 2018]; [Zhang et al., 2008]). Chimeric Gα15i2 (([Toda et al., 2013]), Supplementary data) was generated by replacing the last five residues of the C-terminal tail of rat Gα15i2 (EINLL) (UniProt number G3V6N8; https://www.uniprot.org/uniprot/) with the counterpart sequence from human GNAI2 (DCGLF) (UniProt number P04899-1) and cloning into the pcDNA3.1/Hygro vector (Invitrogen, Thermo Fisher Scientific, Illkirch, France) between the HindIII and NotI restriction sites, resulting in the plasmid pcDNA3.1-Gα15i2. Chimeric Gα16Gust44 construct have already been reported ([Raliou et al., 2011]). Briefly, Gα16Gust44 was generated by replacing the C-terminal of Gα16 with the C-terminal 44 residues of gustducin. As previously described, hTAS1R1 was amplified from human fungiform papillae cDNA and cloned and inserted into pcDNA3 (Invitrogen), generating pcDNA3-TAS1R1-WT (wild-type) ([Raliou et al., 2011]). […] The cDNA coding region of rTAS1R3 was synthesized with optimized-codon usage for human expression (Genewiz) and was cloned and inserted into the mammalian pcDNA4/myc-HisA (Invitrogen) expression vector between the EcoRI and NotI restriction sites, resulting in the plasmid pcDNA4-rTAS1R3. […] The sequence integrity of all the plasmid constructs was verified via automated DNA sequencing (Genewiz).
The hTAS1R1 mutants were co-expressed with the rTAS1R3 subunit in HEK293 cells. […] As a control, the functionality of the mutated receptors was checked after stimulation with S807 (Fig. S8), which interacts with TAS1R1-TMD ([Zhang et al., 2008]).

| SMILES | EC50 | response to the agonist alone, vs WT |
| --- | --- | --- |
| N[C@@H](CCC(=O)N[C@@H](CS)C(=O)NCC(=O)O)C(=O)O [GSH, γ-L-glutamyl-L-cysteinyl-glycine] | > 30 mM | fully abolished; also recorded: completely abolished |
| N[C@@H](CCC(=O)O)C(=O)O [L-Glu, L-glutamic acid, reference compound] | – | completely suppressed; also recorded: completely abolished |
| CCCC(CCC)NC(=O)c1ccc2c(c1)OCO2 [S807, N-(heptan-4-yl)benzo[d][1,3]dioxole-5-carboxamide, reference compound] | – | unaffected |
